Measured values published in patent US20220305019A1, “PARAXANTHINE-BASED COMPOSITIONS FOR PROMOTING WEIGHT LOSS” (Ingenious Ingredients, LP, priority 2021, published 2022).

What was measured:
Assay type in all cases: in vivo, human
[1] = Appetite visual analog scale (VAS) after oral ingestion, crossover, two participants; parameters: Appetite Visual Analog Scale / Appetite Visual Analog Scale MEAN: scale not given here; conditions: for Appetite Visual Analog Scale MEAN: mean 30-180 min
Method: All supplements were orally ingested with 8 fluid ounces of cold tap water. The order of administration for all interventions was randomized using a random allocation software to ensure randomization and to avoid order effects. […] All study visits took place between 0600-1000 hours. At least 72 hours of rest will take place between each condition.

[2] = Respiratory quotient (RQ=VCO2/VO2) after oral ingestion, crossover, two participants; conditions: 100 mg PX
Method: (§1) Upon determination of baseline respiratory quotient (RQ=VCO2/VO2) two participants were assigned in a randomized, double-blind, placebo-controlled, crossover fashion to ingest a non-energetic placebo (maltodextrin) or a 100 mg paraxanthine (PX). All supplements were orally ingested with 8 fluid ounces of cold tap water. The order of administration for all interventions was randomized using a random allocation software to ensure randomization and to avoid order effects. After ingestion, participants completed all assessments in an identical fashion 30, 60, 90, 120, and 180 minutes after ingestion of their assigned supplement. All study visits took place between 0600-1000 hours. At least 72 hours of rest took place between each condition.
The lower the RQ, the more fat that is being oxidized for body energy needs. The closer to 1.0 the more carbohydrate is being burned for energy needs. If numbers are lower, more fat is being oxidized. PX reduced the respiratory quotient by more than 10% compared to placebo, increasing fat oxidation (“fat burning”).

[3] = Swagger visual analog scale (VAS) after oral ingestion, crossover, two participants; parameters: Swagger (Visual Analog Scale) / Swagger VAS MEAN: scale not given here; conditions: 100 mg PX
Method: as §1, with “All” for “Upon determination of baseline respiratory quotient (RQ=VCO2/VO2) two participants were assigned in a randomized, double-blind, placebo-controlled, crossover fashion to ingest a non-energetic placebo (maltodextrin) or a 100 mg paraxanthine (PX). All”

[4] = Confidence visual analog scale (VAS) after oral ingestion, crossover, two participants; parameters: Confidence (Visual Analog Scale) / Confidence VAS MEAN: scale not given here; conditions: 100 mg PX
Method: as §1, with “All” for “Upon determination of baseline respiratory quotient (RQ=VCO2/VO2) two participants were assigned in a randomized, double-blind, placebo-controlled, crossover fashion to ingest a non-energetic placebo (maltodextrin) or a 100 mg paraxanthine (PX). All”

[5] = Self-reported swagger after consuming paraxanthine (individual reports); conditions: person

SMILES: Cn1c(=O)[nH]c2ncn(C)c2c1=O [PX, paraxanthine]
- reduction of mean appetite compared to placebo ([1]; 100 mg PX): 38.5%
- appetite reduction compared to CA ([1]; 100 mg PX and 300 mg PX vs 200 mg CA): greater reduction in appetite compared to CA
- Appetite Visual Analog Scale ([1]; 100 mg PX, 30 min, person one): 29
- Appetite Visual Analog Scale ([1]; 100 mg PX, 30 min, person two): 70
- Appetite Visual Analog Scale ([1]; 100 mg PX, 60 min, person one): 27
- Appetite Visual Analog Scale ([1]; 100 mg PX, 60 min, person two): 65
- Appetite Visual Analog Scale ([1]; 100 mg PX, 90 min, person one): 25
- Appetite Visual Analog Scale ([1]; 100 mg PX, 90 min, person two): 60
- Appetite Visual Analog Scale ([1]; 100 mg PX, 120 min, person one): 29
- Appetite Visual Analog Scale ([1]; 100 mg PX, 120 min, person two): 85
- Appetite Visual Analog Scale ([1]; 100 mg PX, 180 min, person one): 35
- Appetite Visual Analog Scale ([1]; 100 mg PX, 180 min, person two): 90
- Appetite Visual Analog Scale MEAN ([1]; 100 mg PX, Average of both): 51.5
- Appetite Visual Analog Scale MEAN ([1]; 100 mg PX, person one): 29.0
- Appetite Visual Analog Scale MEAN ([1]; 100 mg PX, person two): 74.0
- Appetite VAS mean Δ vs. PLA ([1]; 100 mg PX, person one): −65.2
- Appetite VAS mean Δ vs. PLA ([1]; 100 mg PX, person two): +0.8
- reduction of mean appetite compared to placebo ([1]; 300 mg PX): 43.1%
- Appetite Visual Analog Scale ([1]; 300 mg PX, 30 min, person one): 24
- Appetite Visual Analog Scale ([1]; 300 mg PX, 30 min, person two): 65
- Appetite Visual Analog Scale ([1]; 300 mg PX, 60 min, person one): 30
- Appetite Visual Analog Scale ([1]; 300 mg PX, 60 min, person two): 60
- Appetite Visual Analog Scale ([1]; 300 mg PX, 90 min, person one): 29
- Appetite Visual Analog Scale ([1]; 300 mg PX, 90 min, person two): 55
- Appetite Visual Analog Scale ([1]; 300 mg PX, 120 min, person one): 27
- Appetite Visual Analog Scale ([1]; 300 mg PX, 120 min, person two): 60
- Appetite Visual Analog Scale ([1]; 300 mg PX, 180 min, person one): 26
- Appetite Visual Analog Scale ([1]; 300 mg PX, 180 min, person two): 80
- Appetite Visual Analog Scale MEAN ([1]; 300 mg PX, Average of both): 45.6
- Appetite Visual Analog Scale MEAN ([1]; 300 mg PX, person one): 27.2
- Appetite Visual Analog Scale MEAN ([1]; 300 mg PX, person two): 64.0
- Appetite VAS mean Δ vs. 100 mg PX ([1]; 300 mg PX, person one): −1.8
- Appetite VAS mean Δ vs. PLA ([1]; 300 mg PX, person one): −67.0
- Appetite VAS mean Δ vs. 100 mg PX ([1]; 300 mg PX, person two): −10.0
- Appetite VAS mean Δ vs. PLA ([1]; 300 mg PX, person two): −9.2
- reduction of respiratory quotient compared to placebo [2]: more than 10%
- Respiratory Quotient ([2]; 30 min, person one): 0.68
- Respiratory Quotient ([2]; 30 min, person two): 0.81
- Respiratory Quotient ([2]; 60 min, person one): 0.66
- Respiratory Quotient ([2]; 60 min, person two): 0.74
- Respiratory Quotient ([2]; 90 min, person one): 0.72
- Respiratory Quotient ([2]; 90 min, person two): 0.74
- Respiratory Quotient ([2]; 120 min, person one): 0.70
- Respiratory Quotient ([2]; 120 min, person two): 0.69
- Respiratory Quotient ([2]; 180 min, person one): 0.77
- Respiratory Quotient ([2]; 180 min, person two): 0.70
- Respiratory Quotient MEAN ([2]; Average of both): 0.725
- Respiratory Quotient MEAN ([2]; person one): 0.71
- Respiratory Quotient MEAN Δ from 0 ([2]; person one): −0.014
- Respiratory Quotient MEAN ([2]; person two): 0.74
- Respiratory Quotient MEAN Δ from 0 ([2]; person two): −0.004
- Respiratory Quotient ([2]; time 0 (baseline), person one): 0.72
- Respiratory Quotient ([2]; time 0 (baseline), person two): 0.74
- increase of swagger over 200 mg caffeine ingestion [3]: 26%
- increase of swagger over placebo [3]: 21%
- Swagger (Visual Analog Scale) ([3]; 30 min, person one): 91
- Swagger (Visual Analog Scale) ([3]; 30 min, person two): 71
- Swagger (Visual Analog Scale) ([3]; 60 min, person one): 80
- Swagger (Visual Analog Scale) ([3]; 60 min, person two): 71
- Swagger (Visual Analog Scale) ([3]; 90 min, person one): 89
- Swagger (Visual Analog Scale) ([3]; 90 min, person two): 80
- Swagger (Visual Analog Scale) ([3]; 120 min, person one): 81
- Swagger (Visual Analog Scale) ([3]; 120 min, person two): 75
- Swagger (Visual Analog Scale) ([3]; 180 min, person one): 90
- Swagger (Visual Analog Scale) ([3]; 180 min, person two): 70
- Swagger VAS MEAN ([3]; Average of both): 79.8
- Swagger VAS MEAN ([3]; person one): 86.2
- Swagger VAS mean Δ vs. PLA ([3]; person one): +7.6
- Swagger VAS MEAN ([3]; person two): 73.4
- Swagger VAS mean Δ vs. PLA ([3]; person two): +20.0
- effect on confidence [4]: failed to increase confidence
- Confidence (Visual Analog Scale) ([4]; 30 min, person one): 70
- Confidence (Visual Analog Scale) ([4]; 30 min, person two): 70
- Confidence (Visual Analog Scale) ([4]; 60 min, person one): 80
- Confidence (Visual Analog Scale) ([4]; 60 min, person two): 70
- Confidence (Visual Analog Scale) ([4]; 90 min, person one): 89
- Confidence (Visual Analog Scale) ([4]; 90 min, person two): 65
- Confidence (Visual Analog Scale) ([4]; 120 min, person one): 81
- Confidence (Visual Analog Scale) ([4]; 120 min, person two): 75
- Confidence (Visual Analog Scale) ([4]; 180 min, person one): 90
- Confidence (Visual Analog Scale) ([4]; 180 min, person two): 70
- Confidence VAS MEAN ([4]; Average of both): 76.0
- Confidence VAS MEAN ([4]; person one): 82.0
- Confidence VAS mean Δ vs. PLA ([4]; person one): +0.6
- Confidence VAS MEAN ([4]; person two): 70.0
- Confidence VAS mean Δ vs. PLA ([4]; person two): −1.0
- self-reported swagger ([5]; 50 mg daily during two weeks): increase in swagger
- self-reported swagger ([5]; 100 mg, workplace and team sports): significant increases in swagger
- self-reported swagger ([5]; 200 mg): an increase in swagger
- self-reported swagger ([5]; 400 mg): a significant boost in swagger
